Data on 18 compounds can be found in patent US8969325B2, “TRPV1 antagonists” (AbbVie Inc., priority 2011, dated 2015).

Assay [1] has as its target T1, human TRPV1 (Homo sapiens (Human), UniProt Q8NER1). The assay is described as follows: Acid Activation Assay (pH 5.0, intracellular Ca2+, FLIPR). Format: cell-based. Conditions: percentage of the maximal pH 5.0-induced response remaining; recombinant HEK293 hTRPV1 cells; maximum concentration tested 37.5 μM. As to the method:
Dulbecco's modified Eagle's medium (DMEM) with 4.5 m g/mL D-glucose, fetal bovine serum, L-glutamine, and 2-morpholinoethanesulfonic acid (MES) were purchased from Sigma-Aldrich Co. (St. Louis, Mo.). Dulbecco's phosphate-buffered saline (DPBS) with Ca^2+, Mg^2+, and 1 mg/mL D-glucose (pH 7.4), Geneticin®, 0.25% trypsin-1 mM EDTA, and penicillin-streptomycin were purchased from Invitrogen Corp. (Carlsbad, Calif.). The FLIPR® Calcium 4 assay kit was purchased from Molecular Devices (Sunnyvale, Calif.).
The cDNA for human TRPV1 (hTRPV1) was isolated by reverse transcriptase-polymerase chain reaction (RT-PCR) from human small intestine poly A+ RNA supplied by Clontech (Palo Alto, Calif.) using primers designed surrounding the initiation and termination codons identical to the published sequences (Hayes et al. Pain 2000, 88, 205-215). The resulting cDNA PCR products were subcloned into pCIneo mammalian expression vector (Promega) and fully sequenced using fluorescent dye-terminator reagents (Prism, PerkinElmer Applied Biosystems Division) and a PerkinElmer Applied Biosystems Model 373 DNA sequencer or Model 310 genetic analyzer. Expression plasmids encoding the hTRPV1 cDNA were transfected into HEK293 cells using Lipofectamine®. Forty-eight hours after transfection, the neomycin-resistant cells were selected with growth medium containing 800 μg/mL Geneticin (Life Technologies, formerly Gibco BRL). Surviving individual colonies were isolated and screened for TRPV1 activity. Cells expressing recombinant TRPV1 were maintained at 37° C. in DMEM containing 4 mM L-glutamine, 300 μg/mL G418 (Calbiochem) and 10% fetal bovine serum under a humidified 5% CO2 atmosphere.
The functional activity of compounds at the TRPV1 receptor was determined by measurement of intracellular Ca^2+ levels ([Ca^2+]i) using the Fluorescence Imaging Plate Reader (FLIPR)TETRA®. All compounds were tested over a 12-point one-half-log concentration range with 37.5 μM being the maximum concentration tested. Compound stocks, 10 mM, were prepared in DMSO, and diluted serially across a 384-well plate using a Bravo BenchCel workstation (Agilent Technologies, Santa Clara, Calif.). On the day prior to the experiment, the recombinant HEK293 cells expressing human TRPV1 (hTRPV1) were removed from tissue culture flasks and plated in growth medium into black-walled clear-bottom 384-well Biocoat™ poly-D-lysine assay plates (BD Biosciences, Bedford, Mass.) using a Multidrop® dispenser (ThermoScientific, Waltham, Mass.). On the day of the experiment growth medium was removed, and the no-wash FLIPR® Calcium-4 dye (λEX=470-495 nm, λEM=515-575 nm) was added to each well using the Multidrop® dispenser. The plated cells were incubated for 90-120 min in the dark at 25° C. The test compounds dissolved in DMSO were then added to the plates using an Agilent Bravo workstation (Agilent Technologies Inc., Santa Clara, Calif.). Three minutes later, a pH 5.0 solution was added to each well. Reagents were delivered at a rate of 40 μL/sec, and the final assay volume was 80 μL. Acidic pH solutions were prepared by titration of DPBS/MES with 1 N HCl. The intensity of the fluorescence was captured and digitally transferred to an interfaced PC. The maximum peak measured for the concentration range tested was used to calculate the corresponding peak increase in fluorescence over baseline (relative fluorescence units) which was expressed as the percentage (max % remain) of the maximal pH 5.0-induced response.
Table 1 reports the percentage (max % remain) of the maximal pH 5.0-induced response measured for the compounds tested in the recombinant HEK293 cell assay. Most of the compounds tested inhibited calcium flux only partially following TRPV1 activation by the pH 5.0 solution.

Assay [2] deals with T1, human TRPV1. The assay is described as follows: Capsaicin Activation Assay (intracellular Ca2+, FLIPR). Format: cell-based. Particulars: recombinant HEK293 cells expressing hTRPV1, 50 nM capsaicin. As to the method:
(Logan, Utah). Dulbecco's phosphate-buffered saline (D-PBS) (with 1 mg/mL glucose and 3.6 mg/l Na pyruvate, without phenol red), L-glutamine, hygromycin B, and Lipofectamine® were obtained from Life Technologies (Grand Island, N.Y.). G418 sulfate was obtained from Calbiochem-Novabiochem Corp. (San Diego, Calif.). […] (St. Louis, Mo.). […] The cDNA for human TRPV1 (hTRPV1) was isolated by reverse transcriptase-polymerase chain reaction (RT-PCR) from human small intestine poly A+ RNA supplied by Clontech (Palo Alto, Calif.) using primers designed surrounding the initiation and termination codons identical to the published sequences (Hayes et al. […] The resulting cDNA PCR products were subcloned into pCIneo mammalian expression vector (Promega) and fully sequenced using fluorescent dye-terminator reagents (Prism, PerkinElmer Applied Biosystems Division) and a PerkinElmer Applied Biosystems Model 373 DNA sequencer or Model 310 genetic analyzer. Expression plasmids encoding the hTRPV1 cDNA were transfected into HEK293 cells using Lipofectamine®. Forty-eight hours after transfection, the neomycin-resistant cells were selected with growth medium containing 800 μg/mL Geneticin (Life Technologies, formerly Gibco BRL). Surviving individual colonies were isolated and screened for TRPV1 activity. […] Compound stocks, 10 mM, were prepared in DMSO, and diluted serially across a 384-well plate using a Bravo BenchCel workstation (Agilent Technologies, Santa Clara, Calif.). […] On the day prior to the experiment, the recombinant HEK293 cells expressing human TRPV1 (hTRPV1) were removed from tissue culture flasks and plated in growth medium into black-walled clear-bottom 384-well Biocoat™ poly-D-lysine assay plates (BD Biosciences, Bedford, Mass.) using a Multidrop® dispenser (ThermoScientific, Waltham, Mass.). […] Molecular Devices, Sunnyvale, Calif.) was added to each well using the Multidrop® dispenser. […] Fluorescence readings were made at 1 to 5 second intervals over the course of the experimental run.

T1 sequence (Q8NER1 whole entry): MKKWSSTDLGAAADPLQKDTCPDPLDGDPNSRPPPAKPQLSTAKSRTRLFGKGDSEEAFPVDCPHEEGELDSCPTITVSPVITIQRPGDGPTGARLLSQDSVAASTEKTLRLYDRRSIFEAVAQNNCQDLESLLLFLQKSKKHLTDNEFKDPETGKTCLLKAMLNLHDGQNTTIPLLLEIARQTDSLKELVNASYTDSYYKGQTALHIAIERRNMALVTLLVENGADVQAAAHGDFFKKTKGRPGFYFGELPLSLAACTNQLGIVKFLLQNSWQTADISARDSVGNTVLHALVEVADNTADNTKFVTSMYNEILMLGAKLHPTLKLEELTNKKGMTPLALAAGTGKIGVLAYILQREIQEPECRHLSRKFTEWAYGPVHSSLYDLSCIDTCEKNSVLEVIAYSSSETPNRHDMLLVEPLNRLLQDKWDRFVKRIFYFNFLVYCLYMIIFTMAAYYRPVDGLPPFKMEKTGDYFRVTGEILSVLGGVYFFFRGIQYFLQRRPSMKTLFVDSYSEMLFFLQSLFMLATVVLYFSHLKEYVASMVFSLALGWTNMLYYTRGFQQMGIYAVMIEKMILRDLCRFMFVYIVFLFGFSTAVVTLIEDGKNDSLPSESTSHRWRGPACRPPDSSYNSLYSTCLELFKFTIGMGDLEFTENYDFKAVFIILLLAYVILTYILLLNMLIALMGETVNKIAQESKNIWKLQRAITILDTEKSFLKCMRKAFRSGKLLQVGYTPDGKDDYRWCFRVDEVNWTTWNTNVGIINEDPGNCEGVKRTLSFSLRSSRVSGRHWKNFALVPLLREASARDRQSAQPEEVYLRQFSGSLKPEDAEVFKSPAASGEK

For orientation: IC50 means the point on the concentration scale where inhibition reaches its midpoint. Consider “1-(1-methyl-2-oxo-1,2,3,4-tetrahydroquinazolin-5-yl)-3-[(4R)-8-(trifluoromethoxy)-3,4-dihydro-2H-chromen-4-yl]urea [Example 138]”, for which the “human TRPV1 H^+ (max % remain)” value in assay [1] was 19%. The IC50 in assay [2] turned out to be 38 nM.
The matching figures for “1-[(2R,4R)-7-chloro-2-(difluoromethyl)-2-methyl-3,4-dihydro-2H-chromen-4-yl]-3-(2-oxo-1,2,3,4-tetrahydroquinolin-7-yl)urea [Example 30]”: 31% and 4 nM.
As to “1-[(2S,4R)-2-(fluoromethyl)-2-methyl-7-(trifluoromethyl)-3,4-dihydro-2H-chromen-4-yl]-3-(1-methyl-2-oxo-1,2-dihydroquinolin-5-yl)urea [Example 84]”, the “human TRPV1 H^+ (max % remain)” value in assay [1] is 40%. For the same compound, the IC50 in assay [2] came to 23 nM.
Taken in the same sequence, the figures for “1-[(4R)-7-chloro-2,2-diethyl-3,4-dihydro-2H-chromen-4-yl]-3-(1-methyl-2-oxo-1,2,3,4-tetrahydroquinazolin-5-yl)urea [Example 145]” were 7% and 160 nM.
Consider `CN1C(=O)NCc2c(NC(=O)N[C@@H]3CC(C)(C)Oc4cc(F)ccc43)cccc21` [Example 1, 1-[(4R)-7-fluoro-2,2-dimethyl-3,4-dihydro-2H-chromen-4-yl]-3-(1-methyl-2-oxo-1,2,3,4-tetrahydroquinazolin-5-yl)urea], for which, in assay [1], the “human TRPV1 H^+ (max % remain)” value was found to be 25%. Further, in assay [2], the IC50 is 10 nM.
Consider `CN1C(=O)NCc2c(NC(=O)N[C@@H]3CC(CF)(CF)Oc4c3ccc(Cl)c4F)cccc21` [Example 3, 1-[(4R)-7-chloro-8-fluoro-2,2-bis(fluoromethyl)-3,4-dihydro-2H-chromen-4-yl]-3-(1-methyl-2-oxo-1,2,3,4-tetrahydroquinazolin-5-yl)urea], for which the “human TRPV1 H^+ (max % remain)” value in assay [1] stood at 19%.
The same measure, in the same setting: the figure for `CN1C(=O)NCc2c(NC(=O)N[C@@H]3CC(C)(C)Oc4ccccc43)cccc21` [Example 4, 1-[(4R)-2,2-dimethyl-3,4-dihydro-2H-chromen-4-yl]-3-(1-methyl-2-oxo-1,2,3,4-tetrahydroquinazolin-5-yl)urea] is 35%.
Turning to `CN1C(=O)NCc2c(NC(=O)N[C@@H]3CC(C)(C)Oc4c3ccc(F)c4Cl)cccc21` [Example 5, 1-[(4R)-8-chloro-7-fluoro-2,2-dimethyl-3,4-dihydro-2H-chromen-4-yl]-3-(1-methyl-2-oxo-1,2,3,4-tetrahydroquinazolin-5-yl)urea], the “human TRPV1 H^+ (max % remain)” value in assay [1] is 24%. Also, in assay [2], the IC50 is 17 nM.
For the compound `CN1C(=O)NCc2c(NC(=O)N[C@@H]3CC(C)(C)Oc4cc(Cl)ccc43)cccc21` [Example 6, 1-[(4R)-7-chloro-2,2-dimethyl-3,4-dihydro-2H-chromen-4-yl]-3-(1-methyl-2-oxo-1,2,3,4-tetrahydroquinazolin-5-yl)urea], in assay [1], the “human TRPV1 H^+ (max % remain)” value was 30%.
Regarding `CN1C(=O)NCc2c(NC(=O)N[C@@H]3C[C@](C)(CF)Oc4cc(Cl)ccc43)cccc21` [Example 7, 1-[(2R,4R)-7-chloro-2-(fluoromethyl)-2-methyl-3,4-dihydro-2H-chromen-4-yl]-3-(1-methyl-2-oxo-1,2,3,4-tetrahydroquinazolin-5-yl)urea], the “human TRPV1 H^+ (max % remain)” value in assay [1] amounted to 27%. Besides, in assay [2], the IC50 was 51 nM.
Taken in the same sequence, the figures for `CCN1C(=O)NCc2c(NC(=O)N[C@@H]3CC(C)(C)Oc4ccccc43)cccc21` [Example 8, 1-[(4R)-2,2-dimethyl-3,4-dihydro-2H-chromen-4-yl]-3-(I-ethyl-2-oxo-1,2,3,4-tetrahydroquinazolin-5-yl)urea] were 1% and 94 nM.
Taken in the same sequence, the figures for `CN1C(=O)NCc2c(NC(=O)N[C@@H]3CC(CF)(CF)Oc4ccccc43)cccc21` [Example 9, 1-[(4R)-2,2-bis(fluoromethyl)-3,4-dihydro-2H-chromen-4-yl]-3-(1-methyl-2-oxo-1,2,3,4-tetrahydroquinazolin-5-yl)urea] were 30% and 300 nM.
Taken in the same sequence, the figures for `CN1C(=O)NCc2c(NC(=O)N[C@@H]3C[C@](C)(C(F)F)Oc4cc(Cl)ccc43)cccc21` [Example 10, 1-[(2R,4R)-7-chloro-2-(difluoromethyl)-2-methyl-3,4-dihydro-2H-chromen-4-yl]-3-(1-methyl-2-oxo-1,2,3,4-tetrahydroquinazolin-5-yl)urea] were 19% and 17 nM.
As for `CN1C(=O)NCc2c(NC(=O)N[C@@H]3C[C@@](C)(C(F)F)Oc4cc(Cl)ccc43)cccc21` [Example 11, 1-[(2S,4R)-7-chloro-2-(difluoromethyl)-2-methyl-3,4-dihydro-2H-chromen-4-yl]-3-(1-methyl-2-oxo-1,2,3,4-tetrahydroquinazolin-5-yl)urea], in assay [1], the “human TRPV1 H^+ (max % remain)” value stood at 32%. Also, the IC50 in assay [2] amounted to 21 nM.
Consider `CCC1(CC)C[C@@H](NC(=O)Nc2cccc3c2CNC(=O)N3C)c2ccc(F)cc2O1` [Example 143, 1-[(4R)-2,2-diethyl-7-fluoro-3,4-dihydro-2H-chromen-4-yl]-3-(1-methyl-2-oxo-1,2,3,4-tetrahydroquinazolin-5-yl)urea], for which the “human TRPV1 H^+ (max % remain)” value in assay [1] was determined as 19%.
On the same count and under the same terms, the figure for `CN1C(=O)NCc2c(NC(=O)N[C@@H]3CC(C)(C)c4ccccc43)cccc21` [Example 158, 1-[(1R)-3,3-dimethyl-2,3-dihydro-1H-inden-1-yl]-3-(1-methyl-2-oxo-1,2,3,4-tetrahydroquinazolin-5-yl)urea] is 35%; for `CN1Cc2ccc(NC(=O)N[C@@H]3CC(C)(C)Oc4c(F)cccc43)cc2NC1=O` [Example 210, 1-[(4R)-8-fluoro-2,2-dimethyl-3,4-dihydro-2H-chromen-4-yl]-3-(3-methyl-2-oxo-1,2,3,4-tetrahydroquinazolin-7-yl)urea] it is 60%.
On to `CN1C(=O)CCc2ccc(NC(=O)N[C@@H]3CCOc4c3cccc4C(F)(F)F)cc21` [Example 284, 1-(1-methyl-2-oxo-1,2,3,4-tetrahydroquinolin-7-yl)-3-[(4R)-8-(trifluoromethyl)-3,4-dihydro-2H-chromen-4-yl]urea], for which the “human TRPV1 H^+ (max % remain)” value in assay [1] worked out at 79%.
